Source: ChEMBL document CHEMBL1201862, “PubChem BioAssay data set” (2004)
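All cell lines were grown in 96-well plates and treated with compound for 48 hours. GI50: concentration for 50% inhibition of growth.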 Activity calls are given as the source filed them. Cut-off read from the data, not from the text of the source: active = GI50 up to about 1.1 µM and inactive = higher.

Columns and labels:
Test in all cases: DTP human tumour cell line panel, 48 h
[1] = test system: M14
[2] = test system: NCI-H226
[3] = test system: HT-29
[4] = test system: SNB-19
[5] = test system: MDA-N
[6] = test system: DU-145
[7] = test system: Malme-3M
[8] = test system: HCT-116
[9] = test system: KM12
[10] = test system: UO-31
[11] = test system: HCT-15
[12] = test system: CCRF-CEM
[13] = test system: NCI-H23
[14] = test system: HOP-92
[15] = test system: SN12C
[16] = test system: NCI-H460
[17] = test system: MCF7
[18] = test system: ACHN
[19] = test system: SF-268
[20] = test system: OVCAR-8

SMILES	GI50 [1]	GI50 [2]	GI50 [3]	GI50 [4]	GI50 [5]	GI50 [6]	GI50 [7]	GI50 [8]	GI50 [9]	GI50 [10]	GI50 [11]	GI50 [12]	GI50 [13]	GI50 [14]	GI50 [15]	GI50 [16]	GI50 [17]	GI50 [18]	GI50 [19]	GI50 [20]
C=C[C@@H]1C(CO)=CCC2[C@H]1CCC1C(C)(C)C(=O)CC[C@]21C (stereo not given in full)	> 100 µM (inactive)	> 100 µM (inactive)	> 100 µM (inactive)	> 100 µM (inactive)	> 100 µM (inactive)	> 100 µM (inactive)	> 100 µM (inactive)	> 100 µM (inactive)	> 100 µM (inactive)	> 100 µM (inactive)	> 100 µM	> 100 µM (inactive)	> 100 µM (inactive)	> 100 µM (inactive)	> 100 µM (inactive)	> 100 µM (inactive)	> 100 µM (inactive)	> 100 µM (inactive)	> 100 µM (inactive)	–
CCOC(=O)C1Cc2c(cc3c4c(cccc24)N(C(C)=O)C3)N(C)C1 (stereo not given)	29.9 µM (inactive)	2.9 µM (inactive)	> 100 µM (inactive)	> 100 µM (inactive)	1.67 µM (inactive)	> 100 µM (inactive)	5.18 µM (inactive)	3.67 µM (inactive)	4.17 µM (inactive)	1.07 µM (active)	> 100 µM	0.867 µM (active)	> 100 µM (inactive)	1.65 µM (inactive)	6.04 µM (inactive)	> 100 µM (inactive)	32.7 µM (inactive)	7.91 µM (inactive)	5.86 µM (inactive)	3.97 µM (inactive)
COc1cc2c(c(OC)c1OC)-c1cccc(=O)cc1C(NC(C)=O)CC2 (stereo not given)	0.0621 µM (active)	0.845 µM (active)	0.0721 µM (active)	0.748 µM (active)	< 0.01 µM (active)	0.0624 µM (active)	0.0867 µM (active)	0.055 µM (active)	0.0346 µM (active)	4.93 µM (inactive)	0.612 µM	0.0414 µM (active)	0.0596 µM (active)	0.0863 µM (active)	0.339 µM (active)	0.123 µM (active)	< 0.01 µM (active)	0.953 µM (active)	0.128 µM (active)	0.2 µM (active)
O=C(O)[C@H]1NC[C@@H]2ON=C(Br)[C@@H]21	> 100 µM (inactive)	> 100 µM (inactive)	> 100 µM (inactive)	> 100 µM (inactive)	> 100 µM (inactive)	> 100 µM (inactive)	> 100 µM (inactive)	> 100 µM (inactive)	> 100 µM (inactive)	> 100 µM (inactive)	> 100 µM	> 100 µM (inactive)	> 100 µM (inactive)	> 100 µM (inactive)	> 100 µM (inactive)	> 100 µM (inactive)	> 100 µM (inactive)	> 100 µM (inactive)	> 100 µM (inactive)	> 100 µM (inactive)
COc1cc(C2c3cc4c(cc3OC(O)C2C)OCO4)cc(OC)c1OC (stereo not given)	0.376 µM (active)	0.708 µM (active)	0.346 µM (active)	0.434 µM (active)	0.0887 µM (active)	0.414 µM (active)	0.431 µM (active)	0.349 µM (active)	0.347 µM (active)	0.695 µM (active)	0.403 µM	0.229 µM (active)	0.59 µM (active)	0.562 µM (active)	0.446 µM (active)	0.355 µM (active)	0.29 µM (active)	0.792 µM (active)	1.51 µM (inactive)	0.245 µM (active)
Nc1ccc2c(c1)N(C(=O)CCCC(=O)N1CC(CCl)c3ccc(N)cc31)CC2CCl (stereo not given)	0.604 µM (active)	0.0226 µM (active)	0.946 µM (active)	1.21 µM (inactive)	1.06 µM (active)	0.121 µM (active)	0.0883 µM (active)	0.394 µM (active)	0.948 µM (active)	0.561 µM (active)	1.24 µM	0.185 µM (active)	0.218 µM (active)	1.97 µM (inactive)	0.469 µM (active)	0.716 µM (active)	0.333 µM (active)	0.112 µM (active)	0.115 µM (active)	0.466 µM (active)
NC(=O)N/N=C\CC(O)(C(F)(F)Cl)C(F)(F)Cl	> 10 µM (inactive)	> 10 µM (inactive)	> 10 µM (inactive)	> 10 µM (inactive)	> 10 µM (inactive)	> 10 µM (inactive)	> 10 µM (inactive)	> 10 µM (inactive)	> 10 µM (inactive)	> 10 µM (inactive)	> 10 µM	> 10 µM (inactive)	> 10 µM (inactive)	> 10 µM (inactive)	> 10 µM (inactive)	> 10 µM (inactive)	> 10 µM (inactive)	> 10 µM (inactive)	> 10 µM (inactive)	> 10 µM (inactive)
CC(=O)c1sc2c(c1OC(=O)c1ccco1)c(=O)n(-c1ccccc1)c(=S)n2-c1ccccc1	8.11 µM (inactive)	3.58 µM (inactive)	6 µM (inactive)	28.2 µM (inactive)	24.8 µM (inactive)	26.8 µM (inactive)	5.08 µM (inactive)	18.2 µM (inactive)	21.1 µM (inactive)	20.3 µM (inactive)	18.7 µM	3.93 µM (inactive)	26.9 µM (inactive)	5.43 µM (inactive)	26 µM (inactive)	31 µM (inactive)	22.6 µM (inactive)	–	23.2 µM (inactive)	30.3 µM (inactive)
CC1(C)[N+]([O-])=[N+]([O-])C1(Br)c1ccccc1 (stereo not given)	> 100 µM (inactive)	> 100 µM (inactive)	39.3 µM (inactive)	> 100 µM (inactive)	> 100 µM (inactive)	79.1 µM (inactive)	> 100 µM (inactive)	> 100 µM (inactive)	89.1 µM (inactive)	28.8 µM (inactive)	64.6 µM	39.9 µM (inactive)	80.9 µM (inactive)	> 100 µM (inactive)	> 100 µM (inactive)	68.2 µM (inactive)	72.9 µM (inactive)	> 100 µM (inactive)	65.3 µM (inactive)	> 100 µM (inactive)
CN(C)Cc1cc(C(=O)/C=C/c2c(F)cccc2Cl)cc(CN(C)C)c1O	13.2 µM (inactive)	13.5 µM (inactive)	10.9 µM (inactive)	18.1 µM (inactive)	13 µM (inactive)	8.77 µM (inactive)	11.8 µM (inactive)	4.48 µM (inactive)	12.8 µM (inactive)	3.7 µM (inactive)	4.34 µM	5.13 µM (inactive)	14.9 µM (inactive)	7.52 µM (inactive)	4.57 µM (inactive)	2.37 µM (inactive)	3.03 µM (inactive)	3.9 µM (inactive)	10.1 µM (inactive)	12.4 µM (inactive)
CSC1C(=O)Nc2ccc3ccccc3c21 (stereo not given)	23.1 µM (inactive)	45.5 µM (inactive)	> 100 µM (inactive)	89.5 µM (inactive)	56.5 µM (inactive)	> 100 µM (inactive)	27.2 µM (inactive)	15.7 µM (inactive)	18.6 µM (inactive)	16.1 µM (inactive)	19.3 µM	21 µM (inactive)	> 100 µM (inactive)	16.3 µM (inactive)	20.6 µM (inactive)	> 100 µM (inactive)	38.1 µM (inactive)	27.4 µM (inactive)	17.4 µM (inactive)	17.7 µM (inactive)
CC(=O)O[C@H]1CC[C@@]2(C)C(=CC[C@H]3[C@@H]4C[C@H](N5CCOCC5)[C@H](OC(C)=O)[C@@]4(C)CC[C@@H]32)C1	> 100 µM (inactive)	> 100 µM (inactive)	32.4 µM (inactive)	> 100 µM (inactive)	> 100 µM (inactive)	> 100 µM (inactive)	> 100 µM (inactive)	> 100 µM (inactive)	> 100 µM (inactive)	> 100 µM (inactive)	> 100 µM	> 100 µM (inactive)	> 100 µM (inactive)	> 100 µM (inactive)	> 100 µM (inactive)	> 100 µM (inactive)	> 100 µM (inactive)	> 100 µM (inactive)	> 100 µM (inactive)	> 100 µM (inactive)
CN1CCN(CCCCNc2cc3c4ccccc4c(NCCCCN4CCN(C)CC4)cc3c3ccccc23)CC1	0.895 µM (active)	13.4 µM (inactive)	1.95 µM (inactive)	4.49 µM (inactive)	0.317 µM (active)	1.67 µM (inactive)	2.15 µM (inactive)	0.604 µM (active)	1.55 µM (inactive)	2.69 µM (inactive)	1.34 µM	0.703 µM (active)	2.09 µM (inactive)	6.61 µM (inactive)	2.61 µM (inactive)	1.53 µM (inactive)	1.34 µM (inactive)	4.06 µM (inactive)	1.9 µM (inactive)	1.88 µM (inactive)
CC(C)C(C(=O)O)N1C(=O)c2ccccc2C1=O (stereo not given)	> 100 µM (inactive)	> 100 µM (inactive)	> 100 µM (inactive)	> 100 µM (inactive)	> 100 µM (inactive)	> 100 µM (inactive)	> 100 µM (inactive)	> 100 µM (inactive)	> 100 µM (inactive)	–	> 100 µM	> 100 µM (inactive)	> 100 µM (inactive)	> 100 µM (inactive)	> 100 µM (inactive)	> 100 µM (inactive)	> 100 µM (inactive)	> 100 µM (inactive)	> 100 µM (inactive)	> 100 µM (inactive)
CC(NC1=NCCO1)c1ccsc1 (stereo not given)	17.6 µM (inactive)	58.1 µM (inactive)	15.2 µM (inactive)	37.3 µM (inactive)	24.2 µM (inactive)	43.1 µM (inactive)	21 µM (inactive)	16.4 µM (inactive)	18.8 µM (inactive)	> 100 µM (inactive)	40.7 µM	19.4 µM (inactive)	64.4 µM (inactive)	23.6 µM (inactive)	–	10.9 µM (inactive)	34.8 µM (inactive)	44.9 µM (inactive)	–	28.6 µM (inactive)
